The conditions of data set [1]: human, in vivo. The source says: In summary, the MicroDose Inhaler operation comprises the drug powder contained in a protective blister until delivery. The blister is pierced externally and then placed in contact with a piezoelectric vibrator within the MicroDose Inhaler. When the patient inhales, an airflow sensor automatically turns on the piezo which provides energy to deaggregate the particles of powder and aerosolizes them into the inhalation airstream, providing synchronized delivery. The MicroDose Inhaler was triggered by pressure drop and programmed to produce a series of brief aerosol bursts of predetermined duration within the range of 0.1 to 2.0 seconds, preferably 0.1 seconds, early during each inhalation cycle and for 16 consecutive breaths. The studies were conducted as follows:
Study 3: A Double-Blind, Randomized, 3 Period Crossover, Single Ascending Dose Study to Assess the Safety and Tolerability of Inhaled MDT-637 P3 in Subjects with Intermittent or Mild-to-Moderate Persistent Asthma (Asthma Trial)
The primary objective of Study 3 was to assess the safety and tolerability of MDT-637 P3 when inhaled by subjects with Intermittent, or Mild-to-Moderate Persistent, Asthma. A secondary objective of Study 3 was to determine the rate and extent of systemic absorption of MDT-637 and trough nasal wash MDT-637 drug concentrations following dry powder inhalation dosing.
Each subject was dosed on 3 separate days during the study. Each subject received an initial dose of placebo (Period 1), followed by random allocation at Period 2 to a single dose of nasally inhaled MDT-637 P3 or double blind placebo. After an observation and furlough period, subjects returned for Period 3 to receive three doses of study drug (MDT-637 P3 or placebo) over a single day as listed below. The study consisted of 5 visits: Visit 1 (Screening), Visits 2, 3 and 4 (Dosing), and Visit 5 (Follow up); subjects were furloughed from the clinic for 6 up to 14 days between Visits 3 and 4 and 7-8 days between Visit 4 and 5. Subjects who met all of the inclusion criteria and none of the exclusion criteria (Table 19, FIG. 29) at Visit 1 were eligible to return for Visit 2 within 42 days of screening. Subjects were admitted to the study center twice, once for Visit 2 and again for Visit 4. Visit 5, was a safety follow up (outpatient) visit.
The doses of MDT-637 P3 were determined based on previous clinical experience in Study 1. Both placebo and active were administered as a dry powder for nasal inhalation via a face mask using a MicroDose Inhaler device. At Visit 2, all 10 patients were dosed with placebo Once Daily. At Visit 3, subjects were randomly allocated so that 8 subjects were dosed with MDT-637 P3 Once Daily 66 mcg and 2 subjects received double blind placebo. At Visit 4, subjects were again randomly allocated so that 8 subjects were dosed with MDT-637 TID 132 mcg and 2 subjects received double blind placebo.
Pharmacokinetic variables (Cmax, Tmax, AUC, T1/2) were evaluated based on blood samples drawn at Visit 4.

The conditions of data set [2]: human, in vivo. This is another data set of the same source.
Protocol: The study consisted of 3 visits: Visit 1 (Screening), Visit 2 (Dosing) and Visit 3 (Follow up); subjects furloughed from the clinic between Visits 2 and 3.
Both active and matched placebo were administered via face mask inhalation from a proprietary delivery system (MicroDose inhaler).
Single doses were administered in the morning. TID doses will be administered at 6 hour intervals, with the 1st of the 3 doses administered in the morning.
Pharmacokinetic variables (Cmax, Tmax, AUC, T1/2) were evaluated based on blood samples drawn at Visit 2.
For data set [3] the following is noted: human, in vivo. The source holds these as a separate data set.
Protocol: Subjects were enrolled in cohorts of 12 subjects. […] The study consisted of 3 visits: Visit 1 (Screening), Visit 2 (Dosing), Visit 3 (Follow up) and subjects remained at the study site for pharmacokinetic (PK) sampling, spirometry, and safety assessments. […] Day 1 was the first day of dosing and Day 10 was the final day of dosing, following which subjects remained at the study site for 24 hours following the last dose for PK sampling and spirometry. Visit 3 was a follow-up visit, 7 to 10 days after the last dose. Cohorts were dosed as follows:
The first doses for twice daily (BID) and three times daily (TID) were administered in the morning, starting at approximately 0700 hours on each day of dosing. BID doses were administered at 12 hour intervals and TID doses were administered at 6 hour intervals each dose day.
Pharmacokinetic endpoints (Cmax, Tmax, AUC, T1/2) and dose proportionality was assessed based on a limited number of plasma samples following the first dose on Day 1 and last dose on Day 10
Pharmacokinetic variables (Cmax, Tmax, AUC, T1/2) were evaluated based on blood samples drawn following first dose (Days 1-2) and last dose (Days 10-11).
The next data set has as its system RSV. As to conditions: background statement, cited from earlier work.
A short description of data set [4]: Thermodynamic relationship (hierarchy) of P-2 and P-3 crystal forms. The format is physicochemical. To be noted: sufficient activity of ethanol, preferably above 0.3. The source says: FIG. 17 illustrates the thermodynamic relationship (hierarchy) of the P-2 and P-3 families of crystal forms.
A short description of another data set: physchem. To be noted: organic solvent or mixture, thermodynamic from solid, equilibrium solubility. The method, then:
Equilibrium solubility of different API forms in aqueous ethanol: This solubility was determined for P-2 and P-3 crystal forms using slurry equilibration and solution concentration measurement with HPLC.

The nature of data set [5]: Slurry of equal mixture of six phases in 75/25 acetone-water (PXRD). Format: physicochemical. As to conditions: 25° C., 12 days. As to the method:
An equal powder mixture of six known phases (P-2, P-3, P-4, P-6, P-7 and P-8), 50 mg each were stirred in 75/25 acetone-water solvent (50 mL) at 25° C. over 12 days.

Values after ≈ are worked out from the molar mass of the structure shown.

`Cc1nnnn1/N=C/c1ccc(O)c(C(c2ccc(O)cc2)c2cc(/C=N/n3nnnc3C)ccc2O)c1` [MDT-637, phenol, 2,2′-[(4-hydroxyphenyl)methylene]bis[4-[[(5-methyl-1H-tetrazol-1-yl)imino]methyl]]]: the “clinically significant changes in pulmonary function / pulmonary AEs” value in data set [1] is given as “no clinically significant changes in pulmonary function or reports of pulmonary adverse events”. Also, the “clinically significant changes in labs, vital signs, ECGs, physical exams” value in data set [2] is “no clinically significant changes in pulmonary function, ECG, laboratory values vitals or physical examination”. Moreover, the “changes in pulmonary function / pulmonary AEs (serial spirometry)” value in data set [3] is on record as “no significant changes were observed in pulmonary function or reports of pulmonary adverse events”. For the same compound, in the data set on RSV, the “potency relative to ribavirin” value is 40,000 times. In the data set on RSV (pre- and post-infection), the “reduction of RSV viral count” value was “effective in reducing RSV viral count both pre- and post-infection”.
In the case of `Cc1nnnn1/N=C/c1ccc(O)c(C(c2ccc(O)cc2)c2cc(/C=N/n3nnnc3C)ccc2O)c1` [P-3 ethanolate, phenol, 2,2′-[(4-hydroxyphenyl)methylene]bis[4-[[(5-methyl-1H-tetrazol-1-yl)imino]methyl]]], the thermodynamic stability result in data set [4] is “most stable crystal form”. The solubility (thermodynamic) (commonly solubility found after equilibrating the solid with the medium) in the data set “physchem” was 240 µg/mL (≈ 470 µM).
Turning to `Cc1nnnn1/N=C/c1ccc(O)c(C(c2ccc(O)cc2)c2cc(/C=N/n3nnnc3C)ccc2O)c1` [P-4, phenol, 2,2′-[(4-hydroxyphenyl)methylene]bis[4-[[(5-methyl-1H-tetrazol-1-yl)imino]methyl]]], the “form conversion / stability in six-phase slurry” value (from here on “form conversion / stability”) in data set [5] is “convert to P-2 hydrate”.
Turning to `Cc1nnnn1/N=C/c1ccc(O)c(C(c2ccc(O)cc2)c2cc(/C=N/n3nnnc3C)ccc2O)c1` [P-6, phenol, 2,2′-[(4-hydroxyphenyl)methylene]bis[4-[[(5-methyl-1H-tetrazol-1-yl)imino]methyl]]], the “form conversion / stability” value in data set [5] is listed as “convert to P-2 hydrate”.
For the compound `Cc1nnnn1/N=C/c1ccc(O)c(C(c2ccc(O)cc2)c2cc(/C=N/n3nnnc3C)ccc2O)c1` [P-7, phenol, 2,2′-[(4-hydroxyphenyl)methylene]bis[4-[[(5-methyl-1H-tetrazol-1-yl)imino]methyl]]], the “form conversion / stability” value in data set [5] is recorded as “convert to P-2 hydrate”.
As for `Cc1nnnn1/N=C/c1ccc(O)c(C(c2ccc(O)cc2)c2cc(/C=N/n3nnnc3C)ccc2O)c1` [P-8, phenol, 2,2′-[(4-hydroxyphenyl)methylene]bis[4-[[(5-methyl-1H-tetrazol-1-yl)imino]methyl]]], in data set [5], the “form conversion / stability” value was “convert to P-2 hydrate”.

(Values after patent US9504672B2, “Compositions and methods for treating or preventing pneumovirus infection and associated diseases” (MicroDose Therapeutx, Inc., priority 2012, dated 2016).)
